This passage reports stability during storage results from patent publication US20090216010A1, “CRYSTALLINE CARBAPENEM COMPOUND AND PRODUCED METHOD THEREOF” (priority 2008, published 2009).

A short description of series [1]: stability during storage of the solid form. It is filed as physicochemical. Conditions: new crystalline form B, compared with non-crystalline form, no data given.
For series [2] the following is noted: solid form, storage over a long period of time; prior-art forms (EP 126587A, EP 256377, US 4,888,344); cited from earlier work.

Read-outs that look alike come from different tables or passages of the source.

Take `C[C@@H](O)[C@H]1C(=O)N2C(C(=O)O)=C(S[C@@H]3CN[C@H](C(=O)N(C)C)C3)[C@H](C)[C@H]12` [Compound A in a new crystalline form B, (4R,5S,6S)-3-[[(3S,5S)-5-[(dimethylamino)carbonyl]-3-pyrrolidinyl]thio]-6-[(1R)-1-hydroxyethyl]-4-methyl-7-oxo-1-azabicyclo[3.2.0]hept-2-ene-2-carboxylic acid]: the stability during storage entry in series [1] was “stable for storage”; in series [1] (listed as crystalline carbapenem compound of the present invention), “much more stable than carbapenem compound in a non-crystalline form”.

For `C[C@@H](O)[C@H]1C(=O)N2C(C(=O)O)=C(S[C@@H]3CN[C@H](C(=O)N(C)C)C3)[C@H](C)[C@H]12` [Compound A in such crystalline form A, (4R,5S,6S)-3-[[(3S,5S)-5-[(dimethylamino)carbonyl]-3-pyrrolidinyl]thio]-6-[(1R)-1-hydroxyethyl]-4-methyl-7-oxo-1-azabicyclo[3.2.0]hept-2-ene-2-carboxylic acid], the stability during storage result in series [2] was “much more stable than in a non-crystalline form”.

In the case of `C[C@@H](O)[C@H]1C(=O)N2C(C(=O)O)=C(S[C@@H]3CN[C@H](C(=O)N(C)C)C3)[C@H](C)[C@H]12` [Compound A in such non-crystalline form, (4R,5S,6S)-3-[[(3S,5S)-5-[(dimethylamino)carbonyl]-3-pyrrolidinyl]thio]-6-[(1R)-1-hydroxyethyl]-4-methyl-7-oxo-1-azabicyclo[3.2.0]hept-2-ene-2-carboxylic acid], in series [2], the stability during storage entry is “not sufficiently stable”.
